Results as given in patent US20050170015A1 (priority 2000, published 2005).

Legend:
[1] = Ex# E048; oral 40 mg/kg; 0/8 tumors
[2] = system: RIF-1 murine fibrosarcoma; assay: RIF-1 tumor growth delay, thiocolchicine alone and with cisplatin, camptothecin or amonafide (Example 6); type: in vivo, C3H mice
Procedure: Cisplatin for Injection, USP, was obtained as the commercial product from Bristol Laboratories (Platinol®, Lot No. K1F26A). Camptothecin was obtained from Boehinger-Ingelheim Lot 142088. Amonafide dihydrochloride was prepared in house, in a solution of 20 mg/ml. 0.9% Sodium Chloride for Injection, USP (saline) was manufactured by Abbott Laboratories (Lot No. 55-199-DK). Sterile Water for Injection, USP (WFI) was manufactured by Lyphomed, Inc. (Lot No. 390849). DMSO was obtained from Sigma (St. Louis, Mo.). DMF (dimethylformamide) was obtained from Sigma (St. Louis, Mo.). PEG400 was obtained from Sigma (St. Louis, Mo.).
For preparation of cisplatin formulation, the contents of a 10-mg vial of lyophilized CDDP (Cisplatin for Injection) was resuspended with 10 mL WFI to produce a 1 mg/mL CDDP suspension.
Camptothecin was prepared in a solution of DMSO at 0.75 mg/ml.
This was further diluted using saline to […].
Amonafide was diluted to 15 mg/ml with saline.
Food and water were available ad libitum.
Tumors: The RIF-1 murine fibrosarcoma cell line was maintained in in vitro culture (Wayrnouth medium supplemented with 20% fetal bovine serum) at 37° C. in a humidified 5% CO2 incubator. Log-phase RIF-1 cells were trypsinized and harvested from cell culture flasks to yield a concentration of 4×10^6 cells/mL, then injected intradermally in a volume of 50 μL (equivalent to 2×10^5 cells per injection) into both flanks of each mouse. Nine days later, when tumors reached approximately 100 mm^3 in size, the animals were randomized to different treatment groups.
Evaluation of Tumor Growth Delay: Tumors were measured three times weekly for up to 22 days with Vernier calipers. Tumor volume (cubic millimeters, mm^3) was calculated according to the formula: [formula] in which D1-3 are perpendicular diameters measured in millimeters (mm). Tumor volume quadrupling time (TVQT), defined as the time required for a tumor to grow to four times (4×) its initial volume (at the time of treatment), was used as a study endpoint.
The TVQT was determined for each treatment group and expressed in days as the mean±standard error (SE).

[3] = Ex# E031, IP 4 mg/kg, 4/8 tumors
[4] = Ex# E048, oral 20 mg/kg, 12/16 tumors

## COc1cc2c(c(OC)c1OC)-c1ccc(SC)c(=O)cc1[C@@H](NC(C)=O)CC2 [Thiocolchicine, (S)-N-[5,6,7,9-Tetrahydro-1,2,3-trimethoxy-10-(methylthio)-9-oxobenzo[a]heptalen-7-yl]-acetamide]
[1]
  Mortality (printed in the Days to 4× column): All Died
[2]; Ex# E031, IP 1 mg/kg
  Days to 4× (ave ± SE): 8.7 ± 0.4 days
  Days to 4× Median: 8.7 days
  Delay: 2.08 days
  T/C: 1.3
[2]; Ex# E031, IP 2 mg/kg
  Days to 4× (ave ± SE): 8.9 ± 0.9 days
  Days to 4× Median: 8.1 days
  Delay: 1.48 days
  T/C: 1.3
[2]; [3]
  Days to 4× (ave ± SE): 13.2 ± 1.2 days
  Days to 4× Median: 13.4 days
  Delay: 6.77 days
  T/C: 2.0
[2]; Ex# E047, IP 1 mg/kg
  Days to 4× (ave ± SE): 10.88 ± 1.43 days
  Days to 4× Median: 10.13 days
  Delay: 2.57 days
  T/C: 1.4
[2]; Ex# E047, IP 1 × 2 mg/kg
  Days to 4× (ave ± SE): 12.49 ± 0.52 days
  Days to 4× Median: 13.16 days
  Delay: 5.60 days
  T/C: 1.7
[2]; Ex# E047, Oral 10 mg/kg
  Days to 4× (ave ± SE): 11.78 ± 2.08 days
  Days to 4× Median: 9.11 days
  Delay: 1.56 days
  T/C: 1.6
[2]; Ex# E047, Oral 10 × 2 mg/kg
  Days to 4× (ave ± SE): 13.65 ± 1.60 days
  Days to 4× Median: 13.29 days
  Delay: 5.73 days
  T/C: 1.8
[2]; Ex# E048, oral 10 mg/kg
  Days to 4× (ave ± SE): 10.14 ± 1.15 days
  Days to 4× Median: 9.01 days
  Delay: 2.77 days
  T/C: 1.6
[2]; [4]
  Days to 4× (ave ± SE): 12.34 ± 0.75 days
  Days to 4× Median: 11.52 days
  Delay: 5.28 days
  T/C: 1.9
